Experimental data published in US20200129570A1, “Specific Bacterial Species and Metabolite That Improves Immune Checkpoint Inhibitor Therapy Efficacy” (BOARD OF REGENTS, THE UNIVERSITY OF TEXAS SYSTEM, priority 2017, published 2020).
Values joined by “and” are separate entries in the source; they are usually repeats but may differ in a detail not shown here. Equal entries are not always repeated. “Also recorded” adds a separate entry of the source.

Test system: unresectable or metastatic melanoma
Test: Single-site correlative study: RECIST v1.1 response to immune checkpoint inhibitor therapy (ICT) in metastatic melanoma patients
Assay type: in vivo, human
Settings: for RECIST Category / Change in tumor size (%): individual metastatic melanoma patient, one line per patient; for Change in tumor size (%): RECIST v1.1; for number of patients who responded: monotherapy, metastatic melanoma
Method: Patients and Methods. The study design was a single-site, correlative study of the effects of gut microbiota and metabolites on ICT efficacy in 39 patients. The study was approved by the University of Texas Southwestern Medical Center Institutional Review Board (IRB # STU012016-056). The study was conducted in accordance with the Declaration of Helsinki. The inventors enrolled patients with a histologic diagnosis of unresectable or metastatic melanoma that were scheduled to begin ICT and able to collect stool specimens, store them in a freezer and deliver them to the University of Texas Southwestern Cancer Center facility. In addition, patients had to have measurable disease by Response Evaluation Criteria in Solid Tumors (RECIST) v1.1. Tumor sizes were evaluated within 4 weeks prior to beginning therapy by exams, CT scans, and/or MRIs. […] After informed consent, stool samples were collected and immediately frozen until transferred to the University of Texas Southwestern Medical Center at pretreatment and various times post-therapy. Repeat exams and scans were obtained every 2-3 months. Demographics, antibiotic use, and probiotic exposure were recorded for each patient. Patient response, stable disease and progression were evaluated by RECIST v1.1 criteria as reported.

| Substance | RECIST Category | Change in tumor size (%) | RECIST responders (patients/treated) (metastatic melanoma patients) | number of patients who responded |
| --- | --- | --- | --- | --- |
| pembrolizumab | Progression; also recorded: Response; also recorded: Stable | 53% and 81% and −36% and −68% and 100% (2×) and −27% and −14% and 0% and 125% and 46% and −48% and 131% | 3/13 | – |
| ipilimumab | Response | −100% | – | One |
| nivolumab | Response | −70% | – | One |
